These results are taken from patent publication US9840512B2, “Antidiabetic bicyclic compounds” (Merck Sharp & Dohme Corp., priority 2013, dated 2017).

For one test, the target named is human GPR40 (Homo sapiens, UniProt O14842). As to the kind of experiment: Inositol Phosphate Turnover (IP1) Assay 2. The format is cell-based. The arrangement: expressed in transfected cells. To be noted: HEK cells stably expressing human GPR40, Table 2, read-out: Human IP1. The procedure: Human and mouse GPR40 stable cell-lines were generated in CHO cells stably expressing NFAT BLA (Beta-lactamase). A human GPR40 stable cell-line was generated in HEK cells stably expressing the aequorin expressing reporter. The expression plasmids were transfected using lipofectamine (Life Technologies) following manufacturer's instructions. Stable cell-lines were generated following drug selection.
Chain of human GPR40 (O14842 whole entry): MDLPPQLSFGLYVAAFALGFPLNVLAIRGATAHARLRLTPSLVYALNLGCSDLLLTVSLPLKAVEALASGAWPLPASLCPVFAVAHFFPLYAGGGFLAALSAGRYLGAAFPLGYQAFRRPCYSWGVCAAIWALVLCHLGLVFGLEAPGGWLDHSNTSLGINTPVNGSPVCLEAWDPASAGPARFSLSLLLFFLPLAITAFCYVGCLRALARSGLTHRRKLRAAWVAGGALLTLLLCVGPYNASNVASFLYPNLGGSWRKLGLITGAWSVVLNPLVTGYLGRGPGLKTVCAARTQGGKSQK
The assay is performed in 384-well format. HEK cells stably expressing human GPR40 are plated at 15,000 cells per well in growth medium (DMEM/10% fetal calf serum). Cell plates are then incubated 16 hours at 37 degrees in a 5% CO2 incubator.
Measurement of Inositol Phosphate Turnover (IP1) is performed using the CisBio IP-One kit (Part number 62IPAPEB). After the 16 hour incubation, the cells are washed with HEPES buffer and 10 ul of stimulation buffer (prepared as described in the kit) is added to each well. In a separate plate, compounds are diluted in DMSO (400-fold over the final concentration in the assay well) and 25 nl is acoustically transferred to the appropriate well in the assay cell plate. The plates are then incubated for 60 minutes at 37 degrees. 10 ul of detection buffer (also prepared as described in the IP-One kit) is added to each well and the plates are incubated for 60 minutes in the dark. The plates are then read in a Perkin Elmer EnVision or equivalent reader able to measure FRET.
For `COc1ccc(F)c(-c2ccc(C3CCc4ccc(C(CC(=O)O)C5CC5)nc4O3)cc2)c1` (stereo not shown) [Example 136, 3-cyclopropyl-3-(2-(2′-fluoro-5′-methoxy-[1,1′-biphenyl]-4-yl)-3,4-dihydro-2H-pyrano[2,3-b]pyridin-7-yl)propanoic acid], the EC50 was 217 nM. On to `COc1ccc(F)c(-c2ccc(C3CCc4ccc([C@@H](CC(=O)O)C5CC5)cc4O3)cn2)c1` (single isomer, unassigned) [Example 122b], for which the EC50 amounted to 244 nM. Turning to `COc1ccc(F)c(-c2ccc([C@H]3CCc4ccc([C@H](CC(=O)O)C5CCC5)cc4O3)cc2)c1` (single isomer, unassigned) [Example 150, (3R)-3-cyclobutyl-3-((R or S)-(2-(2′-fluoro-5′-methoxy-[1,1′-biphenyl]-4-yl)chroman-7-yl)propanoic acid], the EC50 turned out to be 660 nM. Turning to `COc1ccc(F)c(-c2ccc(C3CCc4ccc(C(C5CCC5)C(C)C(=O)O)cc4O3)cc2)c1` (single isomer, unassigned) [Example 154], the EC50 was 86 nM. As for `COc1ccc(F)c(-c2ccc(C3CCc4ccc(C(C)CC(=O)O)cc4O3)cc2)c1` (single isomer, unassigned) [Example 138, (S or R)-3-((R or S)-2-(2′-fluoro-5′-methoxy-[1,1′-biphenyl]-4-yl)chroman-7-yl)butanoic acid], the EC50 turned out to be 1200 nM. As for `COc1ccc(F)c(-c2ccc(C3CCc4ccc([C@H](C5CC5)[C@H](C)C(=O)O)cc4O3)nc2N2CCC2)c1` (mixture of isomers) [Example 132], the EC50 stood at 18 nM. On the same count and under the same terms, under `COc1ccc(F)c(-c2cnc(C3CCc4ccc([C@H](C5CC5)C(C)C(=O)O)cc4O3)nc2)c1` (single isomer, unassigned) [Example 124b] stands 70 nM; under `COc1ccc(F)c(-c2cc(F)c(C3CCc4ccc([C@H](C5CC5)[C@H](C)C(=O)O)cc4O3)nc2C)c1` (single isomer, unassigned) [Example 113a], 3.9 nM.

On to `COc1ccc(F)c(-c2ccc(C3CCc4ccc([C@@H](CC(=O)O)C5CC5)cc4O3)cn2)c1` (single isomer, unassigned) [Example 122a], for which the EC50 was determined as 88 nM. `COc1ccc(F)c(-c2ccc(C3CCc4ccc([C@H](C5CC5)[C@@H](C)C(=O)O)cc4O3)cc2)c1` (single isomer, unassigned) [Example 66]: the EC50 is 53 nM. On the same count and under the same terms, under `COc1ccc(F)c(-c2ccc(C3CCc4ccc(C(C5CCC5)C(C)C(=O)O)cc4O3)cc2)c1` (single isomer, unassigned) [Example 153] stands 22 nM; under `COc1ccc(F)c(-c2ccc(C3CCc4ccc([C@H](C5CC5)[C@H](C)C(=O)O)cc4O3)c(C(F)(F)F)n2)c1` (mixture of isomers) [Example 116], 17 nM; under `COc1ccc(F)c(-c2ccc(C3CCc4ccc([C@H](C5CC5)[C@H](C)C(=O)O)cc4O3)nc2C(OC)C(C)(C)C)c1` (single isomer, unassigned) [Example 135c], 2.8 nM. As for `COc1ccc(F)c(-c2ccc(C3CCc4ccc([C@H](C5CC5)[C@H](C)C(=O)O)nc4O3)cc2)c1` (mixture of isomers) [Example 137], the EC50 came to 454 nM. As for `COc1ccc(F)c(-c2ccc([C@H]3CCc4ccc([C@@H](CC(=O)O)C5CCC5)cc4O3)cc2)c1` (single isomer, unassigned) [Example 149, (3S)-3-cyclobutyl-3-((R or S)-(2-(2′-fluoro-5′-methoxy-[1,1′-biphenyl]-4-yl)chroman-7-yl)propanoic acid], the EC50 amounted to 41 nM. On the same count and under the same terms, under `COc1cc(-c2ccc(C3CCc4ccc([C@H](C5CC5)[C@H](C)C(=O)O)cc4O3)nc2C)ccn1` (single isomer, unassigned) [Example 119b] stands 7.8 nM; under `COc1cc(-c2ccc(C3CCc4ccc([C@H](C5CC5)[C@H](C)C(=O)O)cc4O3)cc2)c(F)cn1` (single isomer, unassigned) [Example 117a], 0.89 nM.

`COc1ccc(F)c(-c2ccc([C@@H]3CCc4ccc([C@@H](CC(=O)O)C5CCC5)cc4O3)cc2)c1` (single isomer, unassigned) [Example 151, (3S)-3-cyclobutyl-3-((R or S)-(2-(2′-fluoro-5′-methoxy-[1,1′-biphenyl]-4-yl)chroman-7-yl)propanoic acid]: the EC50 was found to be 79 nM.

As for `COc1cc(-c2ccc(C3CCc4ccc([C@H](C5CC5)[C@H](C)C(=O)O)cc4O3)cc2C(OC)C(C)(C)C)ccn1` (mixture of isomers) [Example 129], the EC50 was determined as 0.5 nM. With `COc1ccc(F)c(-c2cnc(C3CCc4ccc([C@H](C5CC5)[C@H](C)C(=O)O)cc4O3)cc2OC)c1` (single isomer, unassigned) [Example 108b], the EC50 came out at 5.8 nM. On the same count and under the same terms, the value for `COc1cc(-c2ccc(C3CCc4ccc([C@H](C5CC5)[C@H](C)C(=O)O)cc4O3)nc2C)ccn1` (single isomer, unassigned) [Example 119a] was 4.1 nM; that for `COc1ccc(F)c(-c2ccc(C3CCc4ccc([C@@H](CC(=O)O)C5CC5)cc4O3)cc2C(OC)C(C)(C)C)c1` (single isomer, unassigned) [Example 125d] was 256 nM; that for `COc1ccc(F)c(-c2cnc(C3CCc4ccc([C@H](C5CC5)[C@H](C)C(=O)O)cc4O3)c(F)c2)c1` (single isomer, unassigned) [Example 105a] was 0.82 nM. For `COc1ccc(F)c(-c2cnc(C3CCc4ccc([C@H](C5CC5)[C@H](C)C(=O)O)cc4O3)c(C)c2)c1` (single isomer, unassigned) [Example 115b], the EC50 is 17.4 nM. Same read-out and setting: the value for `COc1ccc(F)c(-c2ccc(C3CCc4ccc([C@H](C5CC5)[C@@H](C)C(=O)O)cc4O3)cc2)c1` (single isomer, unassigned) [Example 65] was 51 nM; that for `COc1ccc(F)c(-c2ccc(C3CCc4ccc([C@@H](CC(=O)O)C5CC5)cc4O3)cc2OC(F)(F)F)c1` (mixture of isomers) [Example 99] was 29 nM; that for `COc1ccc(F)c(-c2ccc(C3CCc4ccc([C@H](C5CC5)[C@H](C)C(=O)O)cc4O3)nc2)c1` (single isomer, unassigned) [Example 97a] was 0.9 nM. In the case of `COc1ccc(F)c(-c2ccc(C3CCc4ccc([C@H](C5CC5)[C@H](C)C(=O)O)cc4O3)nc2C(F)(F)F)c1` (single isomer, unassigned) [Example 111b], the EC50 came to 25 nM. Take `COc1ccc(F)c(-c2ccc(C3CCc4ccc([C@@H](CC(=O)O)C5CC5)cc4O3)cc2C(OC)C(C)(C)C)c1` (single isomer, unassigned) [Example 125b]: the EC50 is 8.6 nM. On to `COc1cncc(-c2ccc(C3CCc4ccc([C@@H](CC(=O)O)C5CC5)cc4O3)cc2)n1` (stereo partly shown) [Example 77], for which the EC50 was 920 nM. Same read-out and setting: the value for `COc1cncc(-c2ccc(C3CCc4ccc([C@@H](CC(=O)O)C5CC5)cc4O3)c(F)c2)c1` (mixture of isomers) [Example 86] was 363 nM.

The same test, now with this note: HEK cells stably expressing human GPR40, Table 3, read-out: Human IP1 activity.
As to `C[C@H](C(=O)O)[C@H](c1ccc2c(c1)O[C@H](C1CN([C@@H](C)c3cc(C(F)(F)F)ccc3C(F)(F)F)C1)CO2)C1CC1` [Example 190], the EC50 was 20.3 nM. As for `C[C@H](C(=O)O)[C@H](c1ccc2c(c1)OC(C1CN(Cc3cc(C(F)(F)F)ccc3C(F)(F)F)C1)CO2)C1CC1` (single isomer, unassigned) [Example 188], the EC50 was 5.2 nM.

As for `COc1ccc(F)c(-c2ccc([C@@H]3COc4ccc([C@H](C5CC5)[C@H](C)C(=O)O)cc4O3)c(C(F)(F)F)n2)c1` [Example 162, (2S,3R)-3-cyclopropyl-3-((R)-3-(6-(2-fluoro-5-methoxyphenyl)-2-(trifluoromethyl)-pyridin-3-yl)-2,3-dihydrobenzo[b][1,4]dioxin-6-yl)-2-methylpropanoic acid], the EC50 came out at 8.2 nM. Turning to `COc1ccc(F)c(-c2ccc(C3COc4ccc([C@H](C5CC5)[C@H](C)C(=O)O)c(F)c4O3)nc2)c1` (mixture of isomers) [Example 165], the EC50 is 2.6 nM.

Turning to `COc1ccc(F)c(-c2ccc(C3COc4ccc([C@H](C5CC5)[C@H](C)C(=O)O)cc4O3)nc2)c1` (single isomer, unassigned) [Example 160], the EC50 came to 1.6 nM.

With `COc1ccc(F)c(-c2ccc(C3COc4ccc([C@H](C5CC5)[C@H](C)C(=O)O)c(F)c4O3)cc2)c1` (single isomer, unassigned) [Example 186], the EC50 was found to be 7.9 nM. Consider `CC#C[C@@H](CC(=O)O)c1ccc2c(c1)OCC(c1ccc(-c3cc(OC)ccc3F)cc1)O2` (single isomer, unassigned) [Example 177], for which the EC50 was 870 nM.

With `COc1ccc(F)c(-c2ccc(C3COc4ccc([C@H](C5CC5)[C@H](C)C(=O)O)c(F)c4O3)cc2)c1` (single isomer, unassigned) [Example 185], the EC50 came out at 2 nM. Same read-out and setting: the value for `C[C@H](C(=O)O)[C@H](c1ccc2c(c1)O[C@H](C1CN([C@H](C)c3cc(C(F)(F)F)ccc3C(F)(F)F)C1)CO2)C1CC1` [Example 189, (2S,3R)-3-((R)-3-(1-((R)-1-(2,5-bis(trifluoromethyl)phenyl)ethyl)azetidin-3-yl)-2,3-dihydrobenzo[b][1,4]dioxin-6-yl)-3-cyclopropyl-2-methylpropanoic acid] was 13.3 nM.
